Read-outs that look alike come from different tables or passages of the source.
Target: T1, OXE receptor (Homo sapiens, UniProt Q8TDS5)
T1 construct: Human granulocytes (≥95% neutrophils) are prepared from whole blood; endogenous in cells; host or cells: human granulocytes (≥95% neutrophils) from whole blood
Assay: Calcium mobilization in human granulocytes (inhibition of 5-oxo-ETE-induced calcium mobilization)
Type: cell-based
Description: Evaluation of Antagonist Activity: Calcium Mobilization in Human Granulocytes
Human granulocytes (≥95% neutrophils) are prepared from whole blood using Dextran 500 to remove red blood cells, followed by centrifugation over Ficoll-Paque to remove mononuclear cells and hypotonic lysis of any remaining red blood cells. After centrifugation the granulocytes are suspended in Ca^++/Mg^++-free phosphate-buffered saline (PBS^−). Granulocytes (10^7 cells/ml) are incubated with the acetoxymethyl ester of indo-1 (1 μM) for 30 min, followed by washing twice with PBS^− and resuspension in the same medium to obtain a final cell concentration of 3.22×10^6 cells/ml. Five minutes prior to commencing data acquisition, Ca^++ and Mg^++ are added to give final concentrations of 1.8 and 1 mM, respectively. Calcium measurements are performed at 37° C. using a spectrofluorometer equipped with a temperature-controlled cuvette holder and a magnetic stirrer. The excitation and emission wavelengths are 331 nm and 410 nm, respectively. Following stabilization of the baseline, fluorescence is measured for 1 min, prior to the addition of either vehicle or various concentrations of a potential 5-oxo-ETE antagonist. Two min later, 5-oxo-ETE (10 nM) is added, followed 1 min later by digitonin (final concentration 0.1%). Data acquisition is terminated after a further 0.5 min. Fmax is determined from fluorescence measurements after the addition of digitonin, whereas Fmin is determined after determination of autofluorescence as described in the literature. A dissociation constant of 250 nM for the indo-1/Ca^++ complex is used to calculate [Ca^++]i. The % inhibition of 5-oxo-ETE-induced calcium mobilization by the antagonist is calculated as follows: Inhibition (%)=(1−(Caant/Ca^++veh))×100 where Caant is the increase in cytosolic calcium levels induced by 5-oxo-ETE (10 nM) following the addition of a potential antagonist, whereas Caveh is the response induced by 5-oxo-ETE following addition of vehicle alone.

[1] = inhibition of calcium mobilization induced by 5-oxo-ETE (10 nM) in human granulocytes, bracketed figure in cell = n, read-out: IC50
[2] = 5-oxo-ETE-induced calcium mobilization, read-out: potency (IC50) in the picomolar range

T1 sequence (Q8TDS5 whole entry): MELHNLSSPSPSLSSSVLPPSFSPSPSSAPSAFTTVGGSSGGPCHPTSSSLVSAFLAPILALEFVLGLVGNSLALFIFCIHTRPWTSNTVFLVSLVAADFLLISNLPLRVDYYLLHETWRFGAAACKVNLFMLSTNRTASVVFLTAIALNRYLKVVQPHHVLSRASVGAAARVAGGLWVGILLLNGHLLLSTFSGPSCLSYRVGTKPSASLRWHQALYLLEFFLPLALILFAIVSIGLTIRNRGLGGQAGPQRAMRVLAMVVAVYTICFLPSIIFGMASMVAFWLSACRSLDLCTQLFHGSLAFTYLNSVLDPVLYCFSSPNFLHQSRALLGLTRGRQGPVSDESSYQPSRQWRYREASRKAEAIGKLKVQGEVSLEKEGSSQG

Compound | IC50 [1] [nM] | other results
CC(CC(=O)O)CC(=O)c1c(CCCCCCc2ccccc2F)n(C)c2ccc(Cl)cc12 (stereo not drawn) [Compound 18, 5-(5-chloro-2-(6-(2-fluorophenyl)hexyl)-1-methyl-1H-indol-3-yl)-3-methyl-5-oxopentanoic acid] | 0.41 ± 0.07 | –
CC(CC(=O)O)CC(=O)c1c(CCCCCCc2ccc(Cl)cc2)n(C)c2ccc(Cl)cc12 (stereo not drawn) [Compound 23, 5-(5-chloro-2-(6-(4-chlorophenyl)hexyl)-1-methyl-1H-indol-3-yl)-3-methyl-5-oxopentanoic acid] | 0.63 ± 0.22 | –
C[C@H](CC(=O)O)CC(=O)c1c(C(O)CCCCCc2cccc(Cl)c2)n(C)c2ccc(Cl)cc12 (stereo partly drawn) [Compound 50M] | 0.08 ± 0.02 | –
C[C@@H](CC(=O)O)CC(=O)c1c(CCCCCCc2cccc(F)c2)n(C)c2ccc(Cl)cc12 (single isomer, unassigned) [Compound 66] | 1.8 ± 0.3 | –
C[C@@H](CC(=O)O)CC(=O)c1c(CCCCCCc2ccc(F)cc2)n(C)c2ccc(Cl)cc12 (single isomer, unassigned) [Compound 69] | 4.45 ± 1.05 | –
COc1cccc(CCCCCCc2c(C(=O)CC(C)CC(=O)O)c3cc(Cl)ccc3n2C)c1 (racemic) [Compound 22, 5-(5-chloro-2-(6-(3-methoxyphenyl)hexyl)-1-methyl-1H-indol-3-yl)-3-methyl-5-oxopentanoic acid] | 0.086 ± 0.017 | IC50 [2]: ~0.086 nM
COc1ccccc1CCCCCCc1c(C(=O)C[C@@H](C)CC(=O)O)c2cc(Cl)ccc2n1C (single isomer, unassigned) [Compound 64] | 54 ± 23 | –
CC(CC(=O)O)CC(=O)c1c(CCCCCCc2cccc(F)c2)n(C)c2ccc(Cl)cc12 (racemic) [Compound 21, 5-(5-chloro-2-(6-(3-fluorophenyl)hexyl)-1-methyl-1H-indol-3-yl)-3-methyl-5-oxopentanoic acid] | 0.072 ± 0.007 | IC50 [2]: ~0.072 nM
CC(O)CCCCc1c(C(=O)CC(C)CC(=O)O)c2cc(Cl)ccc2n1C (stereo not drawn) [Met a V230 (ω-1)OH, reference compound] | 1600 ± 400 | times less potent than compound V230 in blocking 5-oxo-ETE-induced calcium mobilization in neutrophils (relative to V230): about 100 times
C[C@H](CC(=O)O)CC(=O)c1c(CCCCCCc2ccc(Cl)cc2)n(C)c2ccc(Cl)cc12 [Compound 53, (S)-5-(5-chloro-2-(6-(4-chlorophenyl)hexyl)-1-methyl-1H-indol-3-yl)-3-methyl-5-oxopentanoic acid] | 0.47 ± 0.16 | –
CCCCCC(O)c1c(C(=O)CC(C)CC(=O)O)c2cc(Cl)ccc2n1C (stereo not drawn) [Compound V230M, reference compound] | 3300 ± 1100 | antagonist activity / potency in words (5-oxo-ETE-induced calcium mobilization): significantly reduced IC50
C[C@H](CC(=O)O)CC(=O)c1c(CCCCCCc2ccc(F)cc2)n(C)c2ccc(Cl)cc12 [Compound 54, (S)-5-(5-chloro-2-(6-(4-fluorophenyl)hexyl)-1-methyl-1H-indol-3-yl)-3-methyl-5-oxopentanoic acid] | 0.39 ± 0.09 | –
COc1ccccc1CCCCCCc1c(C(=O)C[C@H](C)CC(=O)O)c2cc(Cl)ccc2n1C [Compound 49, (S)-5-(5-chloro-2-(6-(2-methoxyphenyl)hexyl)-1-methyl-1H-indol-3-yl)-3-methyl-5-oxopentanoic acid] | 0.1 ± 0.02 | –
COc1cccc(CCCCCCc2c(C(=O)C[C@H](C)CC(=O)O)c3cc(Cl)ccc3n2C)c1 (single isomer, unassigned) [Compound 52] | 0.051 ± 0.007 | –
C[C@H](CC(=O)O)CC(=O)c1c(CCCCCCc2cccc(F)c2)n(C)c2ccc(Cl)cc12 (single isomer, unassigned) [Compound 51] | 0.037 ± 0.005 | –
CC(CC(=O)O)CC(=O)c1c(CCCCCc2ccccc2)n(C)c2ccc(Cl)cc12 (stereo not drawn) [Compound 14, 5-(5-chloro-1-methyl-2-(5-phenylpentyl)-1H-indol-3-yl)-3-methyl-5-oxopentanoic acid] | 11 ± 1 | –
CC(=O)CCCCc1c(C(=O)CC(C)CC(=O)O)c2cc(Cl)ccc2n1C (stereo not drawn) [Met b V230 (ω-1)oxo, reference compound] | 1900 ± 500 | times less potent than compound V230 in blocking 5-oxo-ETE-induced calcium mobilization in neutrophils (relative to V230): about 100 times
CC(CC(=O)O)CC(=O)c1c(CCCCCCO)n(C)c2ccc(Cl)cc12 (stereo not drawn) [V230 ω-OH, reference compound] | 260 ± 30 | –
COc1ccc(CCCCCCc2c(C(=O)CC(C)CC(=O)O)c3cc(Cl)ccc3n2C)cc1 (stereo not drawn) [Compound 25, 5-(5-chloro-2-(6-(4-methoxyphenyl)hexyl)-1-methyl-1H-indol-3-yl)-3-methyl-5-oxopentanoic acid] | 0.63 ± 0.08 | –
COc1cccc(CCCCCCc2c(C(=O)C[C@@H](C)CC(=O)O)c3cc(Cl)ccc3n2C)c1 (single isomer, unassigned) [Compound 67] | 50 ± 13 | –
CC(CC(=O)O)CC(=O)c1c(CCCCCCc2cccc(O)c2)n(C)c2ccc(Cl)cc12 (stereo not drawn) [Compound 38, 5-(5-chloro-2-(6-(3-hydroxyphenyl)hexyl)-1-methyl-1H-indol-3-yl)-3-methyl-5-oxopentanoic acid] | 1.9 ± 0.3 | –

The next lines start with results.

IC50 [1] [nM] | Compound | other results
2.9 ± 0.1 | C[C@@H](CC(=O)O)CC(=O)c1c(CCCCCCc2ccccc2F)n(C)c2ccc(Cl)cc12 (single isomer, unassigned) [Compound 63] | –
0.55 ± 0.19 | C[C@H](CC(=O)O)CC(=O)c1c(CCCCCCc2ccccc2Cl)n(C)c2ccc(Cl)cc12 [Compound 47, (S)-5-(5-chloro-2-(6-(2-chlorophenyl)hexyl)-1-methyl-1H-indol-3-yl)-3-methyl-5-oxopentanoic acid] | –
1.1 ± 0.19 | C[C@@H](CC(=O)O)CC(=O)c1c(CCCC/C=C/c2ccccc2)n(C)c2ccc(Cl)cc12 [Compound 98] | –
0.44 ± 0.13 | CC(CC(=O)O)CC(=O)c1c(CCCCCCc2ccccc2Cl)n(C)c2ccc(Cl)cc12 (stereo not drawn) [Compound 17, 5-(5-chloro-2-(6-(2-chlorophenyl)hexyl)-1-methyl-1H-indol-3-yl)-3-methyl-5-oxopentanoic acid] | –
0.62 ± 0.29 | C[C@H](CC(=O)O)CC(=O)c1c(CCCC/C=C\c2ccccc2)n(C)c2ccc(Cl)cc12 [Compound 95] | –
0.071 ± 0.024 | C[C@H](CC(=O)O)CC(=O)c1c(CCCC/C=C/c2ccccc2)n(C)c2ccc(Cl)cc12 [Compound 97] | –
0.27 ± 0.06 | C[C@H](CC(=O)O)CC(=O)c1c(CCCCCCc2ccccc2F)n(C)c2ccc(Cl)cc12 (single isomer, unassigned) [Compound 48] | –
5.5 | C[C@@H](CC(=O)O)CC(=O)c1c(CCCC/C=C\c2ccccc2)n(C)c2ccc(Cl)cc12 [Compound 96] | –
0.7 | CC(CC(=O)O)CC(=O)c1c(COCCCc2ccccc2)n(C)c2ccc(Cl)cc12 (stereo not drawn) [Compound 83, 5-(5-chloro-1-methyl-2-((3-phenylpropoxy)methyl)-1H-indol-3-yl)-3-methyl-5-oxopentanoic acid] | –
223 ± 18 | CC(CC(=O)O)CC(=O)c1c(CCCc2ccccc2)n(C)c2ccc(Cl)cc12 (stereo not drawn) [Compound 12, 5-(5-chloro-1-methyl-2-(3-phenylpropyl)-1H-indol-3-yl)-3-methyl-5-oxopentanoic acid, reference compound] | reduction of potency compared to V230 (relative to V230): about 8 fold
38 ± 8 | CC(CC(=O)O)CC(=O)c1c(CCCCc2ccccc2)n(C)c2ccc(Cl)cc12 (racemic) [Compound 13, methyl 5-(5-chloro-1-methyl-2-(4-phenylbutyl)-1H-indol-3-yl)-3-methyl-5-oxopentanoic acid] | –
0.65 ± 0.36 | CC(CC(=O)O)CC(=O)c1c(CCCCC=Cc2ccccc2)n(C)c2ccc(Cl)cc12 (stereo not drawn) [Compound 94, 5-[5-Chloro-1-methyl-2-(6-phenyl-hex-5-enyl)-1H-indol-3-yl]-3-methyl-5-oxopentanoic acid] | –
